From patent US20250313530A1, “SMALL MOLECULE INHIBITORS OF INTERLEUKIN-4 AND USES THEREOF” (Trustees of Boston University, priority 2024, published 2025) come the findings set out here.

As a reminder, the inhibition is the share of the control response that was lost under treatment. Read a high inhibition as a response far below the control. A word on the EC50: it is the concentration giving half of the maximal effect. The term Hill coefficient denotes the slope factor of the fitted curve.

Each structure is given as a SMILES string. “And” between values parts separate entries of the source, which are not always exact repeats. Equal entries are not always repeated. Where two headings read alike, the source gives them in different places.

The target in the test is T1, IL-4 (Homo sapiens, UniProt P05112).
T1 construct: purchased Acros Biosystems IL4-H4218; host or cells: HEK-293
T1 sequence (P05112 25-153): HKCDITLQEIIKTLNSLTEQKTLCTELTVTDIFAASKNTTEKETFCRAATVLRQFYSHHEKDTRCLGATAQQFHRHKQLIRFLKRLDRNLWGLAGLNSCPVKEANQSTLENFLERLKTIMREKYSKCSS
Nature of the test: HEK-Blue IL-4/IL-13 reporter assay, IL-4 inhibition. Particulars: for EC50: dose response, IL-4 inhibition. Type of test: cell-based. In general terms: A reporter such as luciferase makes a cellular process visible.

`N#Cc1c(-c2ccc(O)c(O)c2)cc(-c2ccccc2)[nH]c1=N` [Compound 15, 4-(3,4-dihydroxyphenyl)-2-imino-6-phenyl-1,2-dihydropyridine-3-carbonitrile]: 10 µM produced 95.5% inhibition (HEK-Blue, 10 μM, IL-4, HEK Blue IL-4/IL-13 reporter assay). In addition, the EC50 (HEK Blue IL-4/IL-13 reporter assay, read-out: EC50) was 850 nM and 550 nM; the EC50 (values in text, read-out: potency (EC50 of inhibition)) was 552 nM. For the same compound, the Hill coefficient (fit of dose response in HEK Blue IL-4/IL-13 reporter assay) came to 1.49±0.15.
